The values that follow are results of earlier work, collected in US7572808B2, “Triazolopyridine cannabinoid receptor 1 antagonists” (Bristol-Myers Squibb Company, priority 2005, dated 2009).

Molecules are shown by their SMILES. Where two headings read alike, the source gives them in different places.

The conditions of data set [1]: chronic administration for two weeks.
For data set [2] the following is noted: human subjects, 16 week trial period, Phase IIb.

Consider `Cc1c(C(=O)NN2CCCCC2)nn(-c2ccc(Cl)cc2Cl)c1-c1ccc(I)cc1` [AM-251], for which the body weight result in data set [1] is on record as “substantial body weight reduction”. On to `Cc1c(C(=O)NN2CCCCC2)nn(-c2ccc(Cl)cc2Cl)c1-c1ccc(Cl)cc1` [SR-141716], for which the body weight entry in data set [2] was “dose-dependently reduced body weight”.
